What was measured:
Pim1 kinase = Pim1 kinase (Homo sapiens, UniProt P11309); assay: KinaseGlo Pim1 ATP depletion assay; type: biochemical; conditions: Table 4, 2.5 nM PIM1, 20 μM ATP, 40 μM BAD peptide
Procedure: The activity of PIM1 is measured using a luciferase-luciferin based ATP detection reagent to quantify ATP depletion resulting from kinase-catalyzed phosphoryl transfer to a peptide substrate. Compounds to be tested are dissolved in 100% DMSO and directly distributed into white 384-well plates at 0.5 μl per well. […] After 15 minutes, 10 μl of 40 μM ATP in assay buffer is added. […] The reaction is performed until approximately 50% of the ATP is depleted, then stopped with the addition of 20 μl KinaseGlo Plus (Promega Corporation) solution. The stopped reaction is incubated for 10 minutes and the remaining ATP detected via luminescence on the Victor2 (Perkin Elmer).

Pim2 kinase = Pim2 kinase (Homo sapiens, UniProt Q9P1W9); assay: KinaseGlo Pim2 ATP depletion assay; type: biochemical; conditions: Table 4, 5 nM PIM2, 4 μM ATP, 10 μM BAD peptide
Pim3 kinase = Pim3 kinase (Homo sapiens, UniProt Q86V86); assay: KinaseGlo Pim3 ATP depletion assay; type: biochemical; conditions: Table 4, 40 μM ATP, 100 μM BAD peptide
Procedure: The activity of PIM3 is measured using a luciferase-luciferin based ATP detection reagent to quantify ATP depletion resulting from kinase-catalyzed phosphoryl transfer to a peptide substrate. Compounds to be tested are dissolved in 100% DMSO and directly distributed into white 384-well plates at 0.5 μl per well. […] After 15 minutes, 10 μl of 80 μM ATP in assay buffer is added. Final assay concentrations are 5 nM PIM1, 40 μM ATP, 100 μM BAD peptide and 2.5% DMSO. The reaction is performed until approximately 50% of the ATP is depleted, then stopped by the addition of 20 μl KinaseGlo Plus (Promega Corporation) solution. The stopped reaction is incubated for 10 minutes and the remaining ATP detected via luminescence on the Victor2 (Perkin Elmer).

[1] = test system: KMS11 (human myeloma cell line); assay: Cell proliferation assay (CellTiter-Glo) in KMS11 cells; type: cell-based; conditions: KMS-11, 72 h, Table 4, 3 days, read-out: KMS11-luc EC50
Procedure, shortened: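 KMS11 cells at 2000 per well in IMDM/10% FBS were exposed to compound for 3 days. Viability was read by CellTiter-Glo luminescence.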

Chain of Pim1 kinase (P11309 whole entry): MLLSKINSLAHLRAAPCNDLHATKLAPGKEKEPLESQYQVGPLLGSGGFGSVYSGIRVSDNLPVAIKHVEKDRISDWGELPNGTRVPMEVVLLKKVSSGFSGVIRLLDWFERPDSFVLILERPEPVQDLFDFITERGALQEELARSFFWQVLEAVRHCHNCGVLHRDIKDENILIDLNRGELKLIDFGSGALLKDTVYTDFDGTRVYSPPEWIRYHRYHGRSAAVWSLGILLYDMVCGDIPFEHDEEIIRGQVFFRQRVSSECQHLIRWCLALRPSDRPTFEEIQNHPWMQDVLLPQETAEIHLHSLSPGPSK
Chain of Pim2 kinase (Q9P1W9 whole entry): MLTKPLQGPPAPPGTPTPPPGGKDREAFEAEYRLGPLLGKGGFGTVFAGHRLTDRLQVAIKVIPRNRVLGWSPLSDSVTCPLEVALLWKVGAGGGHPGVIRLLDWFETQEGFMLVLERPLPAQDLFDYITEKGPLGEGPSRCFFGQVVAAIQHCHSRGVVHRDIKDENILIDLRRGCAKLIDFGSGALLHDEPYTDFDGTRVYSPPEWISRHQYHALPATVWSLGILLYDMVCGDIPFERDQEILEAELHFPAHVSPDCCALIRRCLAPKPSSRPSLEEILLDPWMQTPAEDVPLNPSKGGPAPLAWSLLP

IC50 (Pim1 kinase) [nM] | IC50 (Pim2 kinase) [nM] | IC50 (Pim3 kinase) [nM] | EC50 [1] [nM] | SMILES
7.5 | 130 | 15.2 | ≥ 10000 | Cc1nn(C)cc1-c1ccc(N)c(C(=O)Nc2cnccc2[C@H]2C[C@@H](O)[C@](C)(O)[C@@H](C)C2)n1 [Example 140, 3-amino-N-(4-((1R,3R,4R,5S)-3,4-dihydroxy-4,5-dimethylcyclohexyl)pyridin-3-yl)-6-(1,3-dimethyl-1H-pyrazol-4-yl)picolinamide]
1.1 | 2.1 | 2.2 | 4870 | C[C@H]1C[C@@H](c2ccncc2NC(=O)c2nc(-c3c(F)cncc3F)ccc2N)C[C@@H](O)[C@]1(C)O [Example 141, 5-amino-N-(4-((1R,3R,4R,5S)-3,4-dihydroxy-4,5-dimethylcyclohexyl)pyridin-3-yl)-3′,5′-difluoro-2,4′-bipyridine-6-carboxamide]
152 | 769 | 245 | ≥ 10000 | C[C@H]1C[C@@H](c2ccncc2NC(=O)c2nc(-c3ccnnc3)ccc2N)C[C@@H](O)[C@]1(C)O [Example 142, 3-amino-N-(4-((1R,3R,4R,5S)-3,4-dihydroxy-4,5-dimethylcyclohexyl)pyridin-3-yl)-6-(pyridazin-4-yl)picolinamide]
8.8 | 120 | 8.7 | 6690 | Cc1c(-c2ccc(N)c(C(=O)Nc3cnccc3[C@H]3C[C@@H](O)[C@](C)(O)[C@@H](C)C3)n2)cnn1C [Example 143, 3-amino-N-(4-((1R,3R,4R,5S)-3,4-dihydroxy-4,5-dimethylcyclohexyl)pyridin-3-yl)-6-(1,5-dimethyl-1H-pyrazol-4-yl)picolinamide]
0.7 | 7.7 | 2.3 | 4220 | C[C@H]1C[C@@H](c2ccncc2NC(=O)c2nc(-c3ncccc3Cl)ccc2N)C[C@@H](O)[C@]1(C)O [Example 144, 5-amino-3′-chloro-N-(4-((1R,3R,4R,5S)-3,4-dihydroxy-4,5-dimethylcyclohexyl)pyridin-3-yl)-2,2′-bipyridine-6-carboxamide]

From patent US20120225061A1, “TETRASUBSTITUTED CYCLOHEXYL COMPOUNDS AS KINASE INHIBITORS” (priority 2011, published 2012)
